# Results from patent US20130231262A1, “ENGINEERED PROTEIN: "2-COLOR SERCA", AN ION-MOTIVE ATPase FUSED TO CERULEAN AND YELLOW FLUORESCENT PROTEIN” (LOYOLA UNIVERSITY CHICAGO, priority 2012, published 2013).
# Legend:
# [1] = tested on: 2-color SERCA (construct 509); details: cited from earlier work
# [2] = target: T1, 2-color SERCA (construct 509) (Canis lupus familiaris, UniProt O46674); test: Tg titration of 2-color SERCA FRET change in AAV-293 cells; assay type: cell-based, canine
# T1 construct: other: Tg-dependent FRET change of construct 509; mCerulean (Cer) was fused to the N-terminus of canine SERCA2a; fused on or other part: mCerulean at the N-terminus
# Method: One consequence of the slow FRET response at low concentrations of Tg is that the apparent EC50 decreased over time. This is evident in FIG. 8B as a left shift in the binding curve with time. This change is quantified in FIG. 8C. The apparent upper limit estimate of EC50 (obtained from the final EC50 value) was approximately 100 nM, which is compatible with the subnanomolar affinity of the Tg-SERCA complex.
# T1 sequence (O46674 whole entry, the tested form may be a part): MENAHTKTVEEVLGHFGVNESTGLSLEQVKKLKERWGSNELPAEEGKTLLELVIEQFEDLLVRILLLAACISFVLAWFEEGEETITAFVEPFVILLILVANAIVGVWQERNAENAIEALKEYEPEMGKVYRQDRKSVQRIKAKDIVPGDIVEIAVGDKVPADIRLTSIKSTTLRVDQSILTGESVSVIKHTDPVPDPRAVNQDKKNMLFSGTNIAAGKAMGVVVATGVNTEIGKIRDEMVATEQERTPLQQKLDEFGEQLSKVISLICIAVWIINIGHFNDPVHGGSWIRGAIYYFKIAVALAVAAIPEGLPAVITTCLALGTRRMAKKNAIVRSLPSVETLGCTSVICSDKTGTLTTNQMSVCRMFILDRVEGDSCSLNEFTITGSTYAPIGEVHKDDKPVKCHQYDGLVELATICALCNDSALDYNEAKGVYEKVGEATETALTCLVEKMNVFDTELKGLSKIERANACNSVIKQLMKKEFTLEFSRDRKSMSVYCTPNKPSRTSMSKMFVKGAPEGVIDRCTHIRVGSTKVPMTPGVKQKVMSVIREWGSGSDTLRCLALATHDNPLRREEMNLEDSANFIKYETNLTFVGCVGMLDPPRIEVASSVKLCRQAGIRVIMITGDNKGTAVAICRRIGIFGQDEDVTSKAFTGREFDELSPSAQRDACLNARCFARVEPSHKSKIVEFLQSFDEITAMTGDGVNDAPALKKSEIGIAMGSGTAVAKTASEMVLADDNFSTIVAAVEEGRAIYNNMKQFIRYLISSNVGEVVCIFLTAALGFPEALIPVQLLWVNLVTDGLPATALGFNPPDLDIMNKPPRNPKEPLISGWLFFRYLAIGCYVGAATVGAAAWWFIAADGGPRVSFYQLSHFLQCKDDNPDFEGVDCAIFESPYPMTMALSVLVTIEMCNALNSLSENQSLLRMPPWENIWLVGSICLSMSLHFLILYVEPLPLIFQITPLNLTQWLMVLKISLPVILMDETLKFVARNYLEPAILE
smiles,measurement,setting,value
"C/C=C(/C)C(=O)O[C@H]1C(C)=C2[C@H]([C@@H]1OC(=O)CCCCCCC)[C@@](C)(OC(C)=O)C[C@H](OC(=O)CCC)[C@@]1(O)[C@H]2OC(=O)[C@@]1(C)O [Tg, thapsigargin]",affinity of the Tg-SERCA complex,[1],subnanomolar
same,EC50,[2],~100 nM
